“Also recorded” adds a separate entry of the source.

Test [1] relates to spleen cells. Nature of the test: Cytokines secreted by in vitro re-stimulated spleen cells of immunized mice (cytometric bead array). It counts as in vivo. How it is done: Cytokines secreted by in vitro re-stimulated spleen cells were determined in immunized mice by CBA. Results are expressed as cytokine concentration ratios (IL-10 the most prominent detected cytokine) (B) and (D) and the stimulation index (A) and (C).
Cytometric Bead Array: Culture supernatants from proliferating cells were collected on days 2 and 4, and stored at −70° C. Determinations of IFN-γ, TNFα, IL-2, IL-4, IL-5, IL-6, IL-10 and IL-12 were performed by cytometric bead array analysis using the commercial kit from BD, according to the manufacturer's instructions. A standard curve was generated for each cytokine by using the corresponding recombinant murine cytokines (Pharmingen). Probes were incubated at room temperature for additional 2 h. The probes were then analyzed by flow cytometry as described by the protocol of BD.
To characterize the type of Th response stimulated following immunization, the content of IFN-γ, IL-2, IL-4, IL-5, IL-6, IL-10, IL-12 and TNFα was measured in supernatants from in vitro re-stimulated spleen cells (FIG. 7). […] In fact, the strong stimulation of IL-10 secretion is congruent with the role played by this cytokine in the inhibition of cytokine synthesis by Th1 cells, the enhancement of B cells proliferation and the stimulation of IgA production.

For test [2], the system named is spleen cells. Description: ELISPOT of cytokine producing spleen cells from vaccinated mice. The format is in vivo. How it is done:
FIG. 9: FIG. 9 provides the cytokine profile (IFNγ, IL-4 and IL-2) secreted by in vitro re-stimulated spleen cells from mice vaccinated with either BPPcysGlyc4armPEG or BPPcysMPEG (A), or BPPcysAda (B) and the model antigen β-gal (30 μg) alone. Results are expressed as spot forming units with subtracted background in the immunized groups with respect to the non-immunized control mice. Differences were statistically significant at p<0.05 (*) with respect to mice receiving antigen alone.
Experimental protocol: Spleens were removed and pooled for analysis of cellular immune responses. Cells were grown in RPMI 1640 supplemented with 10% fetal calf serum, 100 U/ml of penicillin, 50 μg/ml of streptomycin, 5×10^−5 M 2-mercaptoethanol and 1 mM L-glutamine (GIBCO BRL, Karlsruhe, Germany) and maintained at 37° C. in a humidified 5% CO2 atmosphere. […] Coat ELISPOT plate with 100 μl/well of purified capture antibody at 10 μg/ml in coating buffer, incubate at 4° C. overnight. After 6× washing steps, the plates were blocked with 200 μl/well of complete RPMI-1640 at room temperature for 1 hour. The activated cells were seeded at 100 μl per well and incubate at 37° C., in a 5% CO2 humidified incubator for 24 hours or 48 hours. After 5× washing steps with washing buffer and 1× step with distilled water, 100 μl/well of the biotinylated detection antibody with a concentration of 1 μg/ml in Assay Diluent was added and incubated at room temperature for 2 hrs. After further washing steps 100 μl/well of the AV-HRP at 1/1000 dilution in Assay Diluent was added and incubated at room temperature for 30 minutes. After further washing steps 100 μl/well of AEC Substrate Solution was added and developed at room temperature for 20-60 minutes until visible spots appeared. After washing steps with (3×) with 200 μl/well distilled water, the plates were air-dried and analyzed by counting the spots by an ELISPOT reader. Each concentration was tested in triplicates.

Test [3] has as its system primary bone marrow-derived dendritic cells. Nature of the test: In vitro stimulation of primary bone marrow-derived murine dendritic cells, surface markers by flow cytometry. It counts as cell-based, BALB/c mice. The following applies: CD11c+-gated DC, 50 ng/ml, 16 or 40 h pre-treatment. The method, then: FIG. 1: FIGS. 1A-1C show the results for In vitro studies using primary dendritic cells. Primary bone marrow-derived dendritic cell cultures were obtained from BALB/c mice by in vitro maturation of precursors using recombinant GM-CSF (5×10^4 U/ml). Mature dendritic cells were stimulated with 10 ng/ml of E. coli lypopolysaccharide (LPS) or 50 and 100 ng/ml of BPPcysGlyc4armPEG and BPPcysAda, respectively. Then, cells were double-labeled with antibodies specific for CD11c (dendritic cell marker) in combination with anti-CD40, anti-CD54, anti-CD80, anti-CD86, anti-MHC class 1, or anti-MHC class 11 antibodies. The expression of CD40, CD80, CD54, CD86, anti-MHC class 1, and MHC class 11 in CD11c-gated cells were analyzed by flow cytometry.
Experimental protocol: primary bone marrow-derived dendritic cell cultures were obtained from BALB/c mice following in vitro maturation of precursors in the presence of recombinant GM-CSF (5×10^4 U/ml), according to established protocols. Mature dendritic cells were stimulated with 10 ng/ml of E. coli lypopolysaccharide (LPS) or 5 ng/ml of BPPcysGlyc4armPEG, after 12, 24 and/or 48 h stimulation cells were analyzed by flow cytometry to assess the expression of surface markers which are relevant for their antigen presentation capacity.
In order to identify compounds which may have potential as adjuvants for in vivo applications in the vaccinology field, a first in vitro screening based on the used of primary cultures of bone marrow-derived dendritic cells was established. Dendritic cells were selected since they represent the most efficient antigen presenting cells and they play a key role by primary immune responses. In fact, they are the only cell type able to activate resting T cells initiating primary immune responses in vivo. Thus, dendritic cell cultures were treated with the tested moieties or LPS, which was used as a positive control. At different time intervals, samples were taken, stained with fluorescent-labeled antibodies specific for cellular markers critical for the antigen presenting capacities of dendritic cells, and analyzed by flow cytometry.
To test the stimulatory capacity of BPPCysAda on maturation and activation of bone marrow-derived DC, immature DC's were stimulated in vitro with BPPCysAda. Surface markers on CD11c+-gated DC were investigated by FACS analysis after 16 or 40 h pre-treatment.
In general terms: A flow cytometer gives signals particle by particle.

[4] abbreviates: supernatants of in vitro re-stimulated spleen cells.

As to `CCCCCCCCCCCCCCCC(=O)OCC(CSC[C@H](N)C(=O)N[C@H]1[C@@H](O)[C@H](n2cnc3c(N)ncnc32)O[C@@H]1CO)OC(=O)CCCCCCCCCCCCCCC` (single isomer, unassigned) [BPPcysAda, S-[2,3-bis(palmitoyloxy)-(2S or 2R)-propyl]-L-cysteinylcarboxy-3′Amino-3′-deoxyadenosine], the IL-4 levels entry in the test with spleen cells [1] (all BPPcysAda co-administered groups, intranasal) was “induced”. Also, the “type of immune response induced” value with spleen cells [1] (mucosal and parenteral co-administration) is recorded as “Th2 dominated immune response”. Further, in the test on spleen cells [1] (setting [4]), the IFNγ secretion result is “weaker increase; also recorded: minor secretion”, the IL-2 secretion entry is recorded as “induced; also recorded: weaker increase; also recorded: minor secretion”, the IL-6 secretion result is “weaker increase” and the IL-10 levels result is reported as “significantly increased”. Further, in the test on spleen cells [1] (setting [4]), the TNFα secretion result is “weaker increase”. Moreover, in the test with spleen cells [2] (i.n. and s.c. route), the “splenic IL-2 producing cells” value is on record as “enhanced expression” and the “splenic IL-4 producing cells” value is reported as “enhanced expression”. Moreover, the “number of splenic IFNγ producing cells” value with spleen cells [2] (restimulation with MHC class I-restricted β-Galactosidase peptide) is reported as “increment”. Further, in test [3], the “expression of MHC class I and II molecules” value is “increased expression”; the “expression of the adhesion molecule ICAM-1 (CD54)” value is “enhanced expression”; the “expression of the co-stimulatory molecule CD86” value is recorded as “up-regulated”.

These data come from patent US8119689B2, “Adjuvants on the basis of bisacyloxypropylcystene conjugates and derivatives and their uses in pharmaceutical compositions” (Helmholtz-Zentrum Fuer Infektionsforschung GmbH, priority 2005, dated 2012).
